Assay results published in patent publication US6806266B1 (priority 1999, dated 2004).
Where two headings read alike, the source gives them in different places.

Legend:
[1] = system: human epidermal cancer cell line A431; type: cell-based; settings: A431 cells
Method: After the removal of the culture supernatant, the cells were washed with PBS(−), detached in an aqueous solution of 0.25% of Trypsin (GIBCO BRL) and 0.02% of ethylenediaminetetraacetic acid (Wako Pure Chemical Industries, Ltd.), then fixed at a density of 10^6 cells/mL with a 70% aqueous solution of ethanol and stored in a cold room at 4° C. Ethanol was removed by centrifugation from the fixed cells, and then the fixed cells were washed with PBS(−). The cells were treated at 37° C. for 30 minutes with a 0.25 mg/mL PBS(−)solution of ribonuclease A type 1-A (Sigma) containing 0.1% of Nonidet P-40 (Nacalai Tesque, Inc.), and then a solution of propidiumiodide (Sigma) in 0.1% NP-40/PBS(−) was added into the cells at a final concentration of 50 μg/mL, and the cells were stained in ice for at least 20 minutes.
A DNA histogram was taken by EPICS ELITE Flow Cytometer, and the cell cycle distribution was analyzed by use of MultiCycle Program.
In the method shown in Test Example 3, the G2 stage and the M stage of the cell cycle can not be distinguished from each other, and thus the distrubution of the G2 stage combined with that of the M stage (G2 stage+M stage) is expressed in percentage.

human AGP (hα1AGP) = type: binding; settings: equimolar solution (20 μmol/L) of test compound and human AGP, PBS pH=7.4, 37° C., two hours after mixing with DCC; HPLC peak area ratio
Method: A solution of the test compound in DMSO was added to an isotonic phosphate buffer (PBS, pH=7.4) containing human AGP, to prepare an equimolar solution (20 μmol/L) of the test compound and human AGP. The solution was pre-incubated at 37° C. for 15 minutes and then mixed with an equal volume of 4 mg/mL of DCC in PBS, and incubation was further continued. After two hours from mixing, a part of the solution was sampled and centrifuged (4° C., 20000×g, 2 minutes) to precipitate the charcoal, and the supernatant was subjected to HPLC analysis. Separately, an equimolar solution (20 μmol/L) of the test compound and human AGP was mixed with an equal volume of PBS (pH=7.4), and then the mixed solution was subjected as a DCC-untreated sample to HPLC analysis. The ratio of the peak area of the DCC-treated sample to the average peak area of the DCC-untreated sample (the solution mixed with PBS) was calculated as the degree of binding (%).

[2] = system: human lung cancer cell line A-549; test: Test for inhibitory activity on cell growth in human lung cancer cell line A-549; settings: A549, 72 h, read-out: Inhibitory activity on cell growth (IC50/μmol/L)
[3] = Cisplatin 20 μmol/L + test compound 50 nmol/L, 8 hours

| SMILES | Cell cycle distribution (%) G1 stage ([1]; Cisplatin 20 μmol/L alone) [%] | Cell cycle distribution (%) G2 stage + M stage ([1]; Cisplatin 20 μmol/L alone) [%] | Cell cycle distribution (%) S stage ([1]; Cisplatin 20 μmol/L alone) [%] | accumulation action at the G2 stage or S stage (cell cycle distribution versus untreated group) ([1]; only Cisplatin (20 μmol/L)) | Degree of binding to hα1AGP (%) (human AGP (hα1AGP)) | Cell cycle distribution (%) G1 stage [1, 3] [%] | Cell cycle distribution (%) G2 stage + M stage [1, 3] [%] | Cell cycle distribution (%) S stage [1, 3] [%] | abrogation of accumulation action at the G2 stage and S stage ([1]; in combination with Cisplatin (20 μmol/L)) | IC50 [2] [µmol/L] |
| --- | --- | --- | --- | --- | --- | --- | --- | --- | --- | --- |
| N.N.[Cl][Pt][Cl] [Cisplatin] | 5.5 | 17.5 | 77.0 | An increase in the S stage, an increase in (G2 stage+M stage) and a decrease in the G1 stage |  |  |  |  |  |  |
| CN[C@@H]1C[C@H]2O[C@@](C)([C@@H]1OC)n1c3ccccc3c3c4c(c5c6ccccc6n2c5c31)C(=O)N[C@@H]4O [UCN-01] |  |  |  |  | 76.8 | 31.9 | 27.6 | 40.5 | a decrease in the S stage and an increase in the G1 stage | 0.018 |
